{"source": "patent US12465601B2", "about": "“Uses of phosphodiesterase inhibitors” (TRANSTHERA SCIENCES (NANJING), INC., priority 2019, dated 2025)", "key": {"[1]": {"test_system": "rats with heart failure", "assay": "Heart failure models of rats induced by coronary artery ligation", "type": "in vivo, Sprague Dawley rats", "settings": "30 mpk p.o bid, 28 days", "description": "Sprague Dawley rats (SD rats), male, weight of about 220 g during modeling. Before operation, the animals were anesthetized by intraperitoneal injection of sodium pentobarbital injection, and atropine was injected intraperitoneally to eliminate phlegm. After the rat was anesthetized and fixed in supine position, a ventilator was used for assisted breathing, the chest was opened between the third and fourth ribs, and the left anterior descending coronary artery was ligated with a 5-0 suture needle. After the ligation was completed, the chest cavity was closed, the skin was sutured, and the rats were put in an insulation blanket for recovery. The same operation was performed on the sham group, except for the silk ligature operation. After the operation, the rats were subjected to intramuscular injection of meloxicam for pain relief, intraperitoneal injection of gentamicin sulfate injection for eliminating infection, and intraperitoneal injection of lidocaine for preventing ventricular fibrillation. One week after the animals recovered from surgery, the model rats were divided into a model group and a therapeutic drug group (compound 102 group), and the vehicle and compound 102 were administered by gavage, respectively, twice a day for four consecutive weeks. During the experiment, the living status of the animals were observed and abnormal conditions were recorded to evaluate the safety of the compound; and administration was performed for 28 days. The animals were anesthetized by intraperitoneal injection of sodium pentobarbital on the second day after the last administration, and echocardiographic detection and hemodynamic detection were performed to evaluate the effect of the compound on cardiac systolic function and ventricular volume. After the end of the experiment, end point treatment was performed, and the heart was taken for material collection for subsequent related researches on cGMP and protein expression. One week after the animals recovered from surgery, the rats were anesthetized with isoflurane, and a small animal ultrasound imaging system Vevo was used to examine the left ventricular function of the model rats. The model was considered successful if the LVEF % was reduced by 30%. Except for the sham group, the animals were randomly divided into 2 groups according to LVEF % and body weight. The number of animals in each group and the method of administration were as follows: [table] At the end of the experiment, rats were sacrificed and the infarct heart tissue was fixed with 4% formaldehyde, dehydrated, embedded in paraffin, and sectioned. Collagen deposition status was observed under a microscope by means of using Sirius red staining, and the Leica aperio digital slice scanning system was used for scanning analysis. The main evaluation indexes are LVEF % (left ventricular ejection fraction), FS (left ventricular fractional shortening), ESV (left ventricular end-systolic volume), EDV (left ventricular end-diastolic volume), and heart rate (HR). At the end of the experiment, the proportion of Sirius red in peri-infarction zone was quantified to evaluate the collagen deposition status. The data was represented by Mean±S.E.M, and Graphpad Prism 5.0 was used for statistical mapping. Statistical analysis was performed with T-test."}, "[2]": {"test_system": "HEK293T cells double transfected with human PDE9A2 and natriuretic peptide protein receptor 1 (NPR1)", "assay": "Effect on cGMP content in transiently transfected HEK293T cells (ANF-stimulated, cGMP ELISA)", "type": "cell-based", "settings": "ANF 1 μM; compound 0.12-30 μM; FIG. 1", "quoted_text": "Cell name: Human embryonic kidney cell HEK293T\nHEK293T cells were plated in a 6-well plate at 2×10^6 cells/well and cultured for 6 h to allow for adherence of cells.\nThe medium of each well was changed to 1.5 mL DMEM complete medium;\nNon-transfected wells: An equal volume of DMEM complete medium (700 μL DMEM complete medium) was added to non-transfected wells.\nThe medium was aspirated from each well. The cells were washed once with PBS, and 250 μL of 0.5 M perchloric acid was added.\nThe cells were collected with a cell scraper, and transferred into a 1.5 mL centrifuge tube. After homogeneously mixing by vortex, the cells were centrifuged at 6000 g for 20 min at 4° C. […]\nThe plate was washed thoroughly 5 times, then 200 μL of Ellman's Reagent was added to each well. The plate was sealed, shaken in the dark, and color-developed for 60 min, and then detected for absorbance value at 412 nm.\nFirstly, the non-specific binding (the reading of each well minus the reading of the NSB well) was subtracted, and then B/B0 was calculated, that is, the ratio of the binding of the sample or standard to the maximum binding, and converted according to the following formula, and then the obtained logit(B/B0) and lg (compound concentration) were subjected to linear regression analysis to obtain a standard curve. logit(B/B0)=ln[B/B0/(1−B/B0)] […]"}}, "data": [{"smiles": "CCc1cc2c(N3CCC(C)(OC)CC3)c(C#N)c(=O)[nH]c2cn1", "note": "[Compound 102, 6-ethyl-4-(4-methoxy-4-methylpiperidin-1-yl)-2-oxo-1,2-dihydro-1,7-diazanaphthalene-3-carbonitrile]", "values": [{"measurement": "Percentage (%) of collagen deposition in the peri-infarction zone", "setting": "[1]; Mean ± S.E.M, Sirius red staining, P<0.001 vs model group", "value": "21.5 ± 1.234", "unit": "%"}, {"measurement": "collagen deposition in the peri-infarction zone (in words)", "setting": "[1]; compared with model group P<0.001", "value": "significantly reduce"}, {"measurement": "LVEF (left ventricular ejection fraction)", "setting": "[1]; vs model group P<0.001, FIG. 3", "value": "improve the reduction"}, {"measurement": "FS (left ventricular fractional shortening)", "setting": "[1]; vs model group P<0.001, FIG. 4", "value": "improve the reduction"}, {"measurement": "ESV (left ventricular end-systolic volume)", "setting": "[1]; vs model group P<0.01, FIG. 5", "value": "significant improvement effect"}, {"measurement": "EDV (left ventricular end-diastolic volume)", "setting": "[1]; vs model group P<0.05, FIG. 6", "value": "significant improvement effect"}, {"measurement": "cGMP content in HEK293T cells", "setting": "[2]", "value": "Up-regulation effect"}]}]}
